Experimental findings from the supplement of paper PMC10307832 are described below.

The first assay deals with NCI-H23. The assay is described as follows: relative viability (nuclei count vs DMSO), 5 days (fraction); higher = more cells survive. The following applies: first compound 0.8 µM. Summed up: (§1)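 Relative viability is defined as nuclei in treated wells over nuclei in vehicle wells. Duplicate plates were run and medians reported. Lung cancer cell lines in 1536-well plates were dosed by pin tool one day after seeding, with one drug or with a fixed anchor-drug dose plus five library-drug doses (not always all listed) in √10 steps, and nuclei were counted after 5 days.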
On to `CCCCCCCCCCCC1=C(O)C(=O)C=C(O)C1=O` [Embelin] + O=C(c1cc(Cc2n[nH]c(=O)c3ccccc23)ccc1F)N1CCN(C(=O)C2CC2)CC1 [Olaparib] (partner 8 µM), for which the relative viability came out at 0.257.
Compound `CCCCCCCCCCCC1=C(O)C(=O)C=C(O)C1=O` [Embelin] + CC(=O)Nc1cccc(-n2c(=O)n(C3CC3)c(=O)c3c(Nc4ccc(I)cc4F)n(C)c(=O)c(C)c32)c1 [Trametinib] (partner 0.02 µM) registered a relative viability of 0.476.
Still for that read-out and setting: the value for `CCCCCCCCCCCC1=C(O)C(=O)C=C(O)C1=O` [Embelin] + Nc1ncn([C@H]2C[C@H](O)[C@@H](CO)O2)c(=O)n1 [Decitabine] (partner 2 µM) was 0.37.
Compound `CCCCCCCCCCCC1=C(O)C(=O)C=C(O)C1=O` [Embelin] + NC(=O)Nc1cc(-c2cccc(F)c2)sc1C(=O)N[C@H]1CCCNC1 [AZD7762] (partner 0.2 µM) yielded a relative viability of 0.297.

Staying with this assay, now noted: first compound 2.53 µM.
For `CCCCCCCCCCCC1=C(O)C(=O)C=C(O)C1=O` [Embelin] + N=C(N)NC(=N)NCCc1ccccc1 [Phenformin] (partner 250 µM), the relative viability was found to be 0.882.
Still for that read-out and setting: the value for `CCCCCCCCCCCC1=C(O)C(=O)C=C(O)C1=O` [Embelin] + O=C(c1cc(Cc2n[nH]c(=O)c3ccccc23)ccc1F)N1CCN(C(=O)C2CC2)CC1 [Olaparib] (partner 8 µM) was 0.344.
In turn, `CCCCCCCCCCCC1=C(O)C(=O)C=C(O)C1=O` [Embelin] + CC(=O)Nc1cccc(-n2c(=O)n(C3CC3)c(=O)c3c(Nc4ccc(I)cc4F)n(C)c(=O)c(C)c32)c1 [Trametinib] (partner 0.02 µM) gave a relative viability of 0.437.
In the case of `CCCCCCCCCCCC1=C(O)C(=O)C=C(O)C1=O` [Embelin] + Nc1ncn([C@H]2C[C@H](O)[C@@H](CO)O2)c(=O)n1 [Decitabine] (partner 2 µM), the relative viability came out at 0.329.
The same measure, in the same setting: the result for `CCCCCCCCCCCC1=C(O)C(=O)C=C(O)C1=O` [Embelin] + NC(=O)Nc1cc(-c2cccc(F)c2)sc1C(=O)N[C@H]1CCCNC1 [AZD7762] (partner 0.2 µM) reads 0.3.

The same assay, now with this note: first compound 8 µM.
`CCCCCCCCCCCC1=C(O)C(=O)C=C(O)C1=O` [Embelin] + N=C(N)NC(=N)NCCc1ccccc1 [Phenformin] (partner 250 µM) showed a relative viability of 0.693.
On the same count and under the same terms, the result for `CCCCCCCCCCCC1=C(O)C(=O)C=C(O)C1=O` [Embelin] + O=C(c1cc(Cc2n[nH]c(=O)c3ccccc23)ccc1F)N1CCN(C(=O)C2CC2)CC1 [Olaparib] (partner 8 µM) reads 0.274.
The same measure, in the same setting: the value for `CCCCCCCCCCCC1=C(O)C(=O)C=C(O)C1=O` [Embelin] + CC(=O)Nc1cccc(-n2c(=O)n(C3CC3)c(=O)c3c(Nc4ccc(I)cc4F)n(C)c(=O)c(C)c32)c1 [Trametinib] (partner 0.02 µM) was 0.396.
For the compound `CCCCCCCCCCCC1=C(O)C(=O)C=C(O)C1=O` [Embelin] + Nc1ncn([C@H]2C[C@H](O)[C@@H](CO)O2)c(=O)n1 [Decitabine] (partner 2 µM), the relative viability was 0.29.
Still for that read-out and setting: the result for `CCCCCCCCCCCC1=C(O)C(=O)C=C(O)C1=O` [Embelin] + NC(=O)Nc1cc(-c2cccc(F)c2)sc1C(=O)N[C@H]1CCCNC1 [AZD7762] (partner 0.2 µM) reads 0.248.

The test system of a further assay is NCI-H2405. The assay is described as above. Conditions: first compound 0.08 µM. Put shortly:
as §1
The compound `CCCCCCCCCCCC1=C(O)C(=O)C=C(O)C1=O` [Embelin] + N=C(N)NC(=N)NCCc1ccccc1 [Phenformin] (partner 250 µM) returned a relative viability of 0.408.
On the same count and under the same terms, the value for `CCCCCCCCCCCC1=C(O)C(=O)C=C(O)C1=O` [Embelin] + O=C(c1cc(Cc2n[nH]c(=O)c3ccccc23)ccc1F)N1CCN(C(=O)C2CC2)CC1 [Olaparib] (partner 8 µM) was 0.872; that for `CCCCCCCCCCCC1=C(O)C(=O)C=C(O)C1=O` [Embelin] + CC(=O)Nc1cccc(-n2c(=O)n(C3CC3)c(=O)c3c(Nc4ccc(I)cc4F)n(C)c(=O)c(C)c32)c1 [Trametinib] (partner 0.02 µM) was 0.664.
The same measure, in the same setting: the value for `CCCCCCCCCCCC1=C(O)C(=O)C=C(O)C1=O` [Embelin] + Nc1ncn([C@H]2C[C@H](O)[C@@H](CO)O2)c(=O)n1 [Decitabine] (partner 2 µM) was 0.764; that for `CCCCCCCCCCCC1=C(O)C(=O)C=C(O)C1=O` [Embelin] + NC(=O)Nc1cc(-c2cccc(F)c2)sc1C(=O)N[C@H]1CCCNC1 [AZD7762] (partner 0.2 µM) was 0.696.

The same assay, now with this note: first compound 0.8 µM.
As to `CCCCCCCCCCCC1=C(O)C(=O)C=C(O)C1=O` [Embelin] + N=C(N)NC(=N)NCCc1ccccc1 [Phenformin] (partner 250 µM), the relative viability is 0.445.
On to `CCCCCCCCCCCC1=C(O)C(=O)C=C(O)C1=O` [Embelin] + O=C(c1cc(Cc2n[nH]c(=O)c3ccccc23)ccc1F)N1CCN(C(=O)C2CC2)CC1 [Olaparib] (partner 8 µM), for which the relative viability came to 0.842.
On to `CCCCCCCCCCCC1=C(O)C(=O)C=C(O)C1=O` [Embelin] + CC(=O)Nc1cccc(-n2c(=O)n(C3CC3)c(=O)c3c(Nc4ccc(I)cc4F)n(C)c(=O)c(C)c32)c1 [Trametinib] (partner 0.02 µM), for which the relative viability stood at 0.778.
Same read-out and setting: the value for `CCCCCCCCCCCC1=C(O)C(=O)C=C(O)C1=O` [Embelin] + Nc1ncn([C@H]2C[C@H](O)[C@@H](CO)O2)c(=O)n1 [Decitabine] (partner 2 µM) was 0.89; that for `CCCCCCCCCCCC1=C(O)C(=O)C=C(O)C1=O` [Embelin] + NC(=O)Nc1cc(-c2cccc(F)c2)sc1C(=O)N[C@H]1CCCNC1 [AZD7762] (partner 0.2 µM) was 0.838.

Still in this assay, the particulars now being: first compound 2.53 µM.
As for `CCCCCCCCCCCC1=C(O)C(=O)C=C(O)C1=O` [Embelin] + N=C(N)NC(=N)NCCc1ccccc1 [Phenformin] (partner 250 µM), the relative viability is 0.367.
Still for that read-out and setting: the value for `CCCCCCCCCCCC1=C(O)C(=O)C=C(O)C1=O` [Embelin] + O=C(c1cc(Cc2n[nH]c(=O)c3ccccc23)ccc1F)N1CCN(C(=O)C2CC2)CC1 [Olaparib] (partner 8 µM) was 0.909; that for `CCCCCCCCCCCC1=C(O)C(=O)C=C(O)C1=O` [Embelin] + CC(=O)Nc1cccc(-n2c(=O)n(C3CC3)c(=O)c3c(Nc4ccc(I)cc4F)n(C)c(=O)c(C)c32)c1 [Trametinib] (partner 0.02 µM) was 0.638.
On the same count and under the same terms, the result for `CCCCCCCCCCCC1=C(O)C(=O)C=C(O)C1=O` [Embelin] + Nc1ncn([C@H]2C[C@H](O)[C@@H](CO)O2)c(=O)n1 [Decitabine] (partner 2 µM) reads 0.738.
The same measure, in the same setting: the value for `CCCCCCCCCCCC1=C(O)C(=O)C=C(O)C1=O` [Embelin] + NC(=O)Nc1cc(-c2cccc(F)c2)sc1C(=O)N[C@H]1CCCNC1 [AZD7762] (partner 0.2 µM) was 0.876.

The assay is the same for the next values; noted with them: first compound 8 µM.
In the case of `CCCCCCCCCCCC1=C(O)C(=O)C=C(O)C1=O` [Embelin] + N=C(N)NC(=N)NCCc1ccccc1 [Phenformin] (partner 250 µM), the relative viability is 0.341.
